# PMC9078972 (RSC Advances, 2018)
# Assays:
# [1] = system: Mycobacterium tuberculosis H37Ra; assay: microbe, parasite or virus in culture; type: cell-based
# physchem = settings: 37 °C, water, thermodynamic from solid
# [2] = Cytotoxicity against VERO cells; type: cell-based; settings: African green monkey, VERO cells (kidney epithelial cells)
# in vitro [3] = settings: dog; for Papp A→B: MDCK-MDR1, pH 7.4, Mean Papp A to B, A to B
# in vitro [4] = settings: rat, microsomes, pH 7.5
# in vitro [5] = settings: human, microsomes, pH 7.5
# [6] = Pharmacokinetic study in ICR mice; type: in vivo; settings: mouse
# in vitro [7] = settings: mouse, microsomes, pH 7.5
# CYP3A4 = CYP3A4 (Homo sapiens, UniProt P08684); assay: biochemical
# CYP2C19 = CYP2C19 (Homo sapiens, UniProt P33261); assay: biochemical; settings: CYP inhibitory IC50, 2C19
# Chain of CYP2C19 (P33261 whole entry): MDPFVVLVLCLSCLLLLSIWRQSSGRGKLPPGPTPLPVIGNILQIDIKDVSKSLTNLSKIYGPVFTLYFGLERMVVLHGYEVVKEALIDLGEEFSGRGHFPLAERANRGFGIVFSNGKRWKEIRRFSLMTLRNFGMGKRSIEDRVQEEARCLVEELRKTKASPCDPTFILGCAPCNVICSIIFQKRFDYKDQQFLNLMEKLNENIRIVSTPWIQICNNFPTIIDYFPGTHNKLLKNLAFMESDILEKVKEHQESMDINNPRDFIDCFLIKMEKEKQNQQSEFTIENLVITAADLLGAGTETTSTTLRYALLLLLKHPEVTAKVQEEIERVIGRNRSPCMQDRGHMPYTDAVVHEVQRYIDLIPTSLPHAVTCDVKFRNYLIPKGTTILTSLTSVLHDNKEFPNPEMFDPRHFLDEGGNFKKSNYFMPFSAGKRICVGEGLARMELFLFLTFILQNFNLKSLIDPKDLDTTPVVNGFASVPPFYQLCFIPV
# Chain of CYP3A4 (P08684 whole entry): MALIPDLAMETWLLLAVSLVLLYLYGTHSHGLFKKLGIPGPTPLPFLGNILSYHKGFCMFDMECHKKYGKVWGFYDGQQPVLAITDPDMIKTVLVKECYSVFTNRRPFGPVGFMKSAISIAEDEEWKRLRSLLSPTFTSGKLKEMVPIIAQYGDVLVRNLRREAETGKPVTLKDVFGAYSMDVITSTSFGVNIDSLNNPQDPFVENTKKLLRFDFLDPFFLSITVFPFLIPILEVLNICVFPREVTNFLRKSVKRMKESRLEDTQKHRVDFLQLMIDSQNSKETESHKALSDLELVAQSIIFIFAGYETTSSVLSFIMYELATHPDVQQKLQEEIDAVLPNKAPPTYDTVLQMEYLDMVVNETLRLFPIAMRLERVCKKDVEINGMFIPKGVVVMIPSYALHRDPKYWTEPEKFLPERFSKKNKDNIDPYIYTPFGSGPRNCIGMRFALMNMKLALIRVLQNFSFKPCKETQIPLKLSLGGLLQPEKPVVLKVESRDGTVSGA
smiles,measurement,setting,value
"CCOC(=O)C(C)N1CCN(c2nc(=O)c3cc(C(F)(F)F)cc([N+](=O)[O-])c3s2)CC1 (stereo not shown) [Compound 2d, Ethyl 2-(4-(8-nitro-4-oxo-6-(trifluoromethyl)-4H-benzo[e][1,3]thiazin-2-yl)-piperazin-1-yl)propanoate]",MIC,[1],0.008 µM
"Cc1ccnc(OC2CCN(c3nc(=O)c4cc(C(F)(F)F)cc([N+](=O)[O-])c4s3)CC2)n1 [Compound 3m, 2-(4-((4-Methylpyrimidin-2-yl)oxy)piperidin-1-yl)-8-nitro-6-(trifluoromethyl)-4H-benzo[e][1,3]thiazin-4-one]",MIC,[1],0.031 µM
same,solubility,physchem,2.39 µg/mL
same,CC50,[2],> 10 µM
"O=C(OC1CCN(c2nc(=O)c3cc(C(F)(F)F)cc([N+](=O)[O-])c3s2)CC1)c1ccccc1Cl [Compound 2j, 1-(8-Nitro-4-oxo-6-(trifluoromethyl)-4H-benzo[e][1,3]thiazin-2-yl)piperidin-4-yl 2-chlorobenzoate]",MIC,[1],0.008 µM
same,CC50,[2],> 10 µM
"COC(=O)c1ccc(C(=O)OC2CCN(c3nc(=O)c4cc(C(F)(F)F)cc([N+](=O)[O-])c4s3)CC2)cc1 [Compound 2n, Methyl (1-(8-nitro-4-oxo-6-(trifluoromethyl)-4H-benzo[e][1,3]thiazin-2-yl)-piperidin-4-yl) terephthalate]",MIC,[1],0.063 µM
same,CC50,[2],> 10 µM
"CN(C)c1ccc(C(=O)OC2CCN(c3nc(=O)c4cc(C(F)(F)F)cc([N+](=O)[O-])c4s3)CC2)cc1 [Compound 2o, 1-(8-Nitro-4-oxo-6-(trifluoromethyl)-4H-benzo[e][1,3]thiazin-2-yl)piperidin-4-yl 4-(dimethylamino)benzoate]",MIC,[1],0.031 µM
same,CC50,[2],> 10 µM
"CCOC(=O)C1CCN(c2nc(=O)c3cc(C(F)(F)F)cc([N+](=O)[O-])c3s2)CC1 [Compound 2a, Ethyl 1-(8-nitro-4-oxo-6-(trifluoromethyl)-4H-benzo[e][1,3]thiazin-2-yl)piperidine-4-carboxylate]",MIC,[1],0.008 µM
same,CC50,[2],> 10 µM
"O=C1CN(c2nc(=O)c3cc(C(F)(F)F)cc([N+](=O)[O-])c3s2)CCN1C1CCCCC1 [Compound 1b, 2-(4-Cyclohexyl-3-oxopiperazin-1-yl)-8-nitro-6-(trifluoromethyl)-4H-benzo[e]-[1,3]thiazin-4-one]",MIC,[1],0.017 µM
same,solubility,physchem,1.63 µg/mL
same,CC50,[2],> 10 µM
"Cc1ccccc1OC1CCN(c2nc(=O)c3cc(C(F)(F)F)cc([N+](=O)[O-])c3s2)CC1 [Compound 3g, 8-Nitro-2-(4-(o-tolyloxy)piperidin-1-yl)-6-(trifluoromethyl)-4H-benzo[e][1,3]thiazin-4-one]",MIC,[1],0.016 µM
same,CC50,[2],> 10 µM
"O=c1nc(N2CCC(Oc3ccc(F)cc3)CC2)sc2c([N+](=O)[O-])cc(C(F)(F)F)cc12 [Compound 3b, 2-(4-(4-Fluorophenoxy)piperidin-1-yl)-8-nitro-6-(trifluoro-methyl)-4H-benzo[e][1,3]-thiazin-4-one]",MIC,[1],0.004 µM
"O=C(OC1CCN(c2nc(=O)c3cc(C(F)(F)F)cc([N+](=O)[O-])c3s2)CC1)c1ccc(C(F)(F)F)cc1 [Compound 2k, 1-(8-Nitro-4-oxo-6-(trifluoromethyl)-4H-benzo[e][1,3]thiazin-2-yl)piperidin-4-yl 4-(trifluoromethyl)benzoate]",MIC,[1],0.008 µM
same,CC50,[2],> 10 µM
"O=C1CN(c2nc(=O)c3cc(C(F)(F)F)cc([N+](=O)[O-])c3s2)CCN1CC1CCCCC1 [Compound 1c, 2-(4-(Cyclohexylmethyl)-3-oxopiperazin-1-yl)-8-nitro-6-(trifluoromethyl)-4H-benzo-[e][1,3]thiazin-4-one]",MIC,[1],0.017 µM
same,solubility,physchem,3.57 µg/mL
same,CC50,[2],> 10 µM
"O=c1nc(N2CCC(Oc3ccc(F)cn3)CC2)sc2c([N+](=O)[O-])cc(C(F)(F)F)cc12 [Compound 3l, 2-(4-((5-Fluoropyridin-2-yl)oxy)piperidin-1-yl)-8-nitro-6-(tri-fluoromethyl)-4H-benzo[e][1,3]thiazin-4-one]",MIC,[1],0.031 µM
same,CC50,[2],> 10 µM
"COc1ccccc1C(=O)OC1CCN(c2nc(=O)c3cc(C(F)(F)F)cc([N+](=O)[O-])c3s2)CC1 [Compound 2m, 1-(8-Nitro-4-oxo-6-(trifluoromethyl)-4H-benzo[e][1,3]thiazin-2-yl)piperidin-4-yl 2-methoxybenzoate]",MIC,[1],0.063 µM
same,CC50,[2],> 10 µM
"O=c1nc(N2CCC(Oc3ccc(OC(F)(F)F)cc3)CC2)sc2c([N+](=O)[O-])cc(C(F)(F)F)cc12 [Compound 3h, 8-Nitro-2-(4-(4-(trifluoromethoxy)phenoxy)piperidin-1-yl)-6-(trifluoromethyl)-4H-benzo[e][1,3]thiazin-4-one]",MIC,[1],0.008 µM
same,CC50,[2],> 10 µM
"CCOC(=O)CC1CCN(c2nc(=O)c3cc(C(F)(F)F)cc([N+](=O)[O-])c3s2)CC1 [Compound 2c, Ethyl 2-(1-(8-nitro-4-oxo-6-(trifluoromethyl)-4H-benzo[e][1,3]thiazin-2-yl)-piperidin-4-yl)acetate]",MIC,[1],0.016 µM
same,CC50,[2],> 10 µM
"O=C(OC1CCN(c2nc(=O)c3cc(C(F)(F)F)cc([N+](=O)[O-])c3s2)CC1)c1ccc(F)cc1 [Compound 2h, 1-(8-Nitro-4-oxo-6-(trifluoromethyl)-4H-benzo[e][1,3]thiazin-2-yl)piperidin-4-yl 4-fluorobenzoate]",MIC,[1],≤ 0.002 µM
O=c1nc(N2CCN(CC3CCCCC3)CC2)sc2c([N+](=O)[O-])cc(C(F)(F)F)cc12 [PBTZ169],Papp B→A,"in vitro [3]; MDCK-MDR1, pH 7.4",0.74 ×10⁻⁶ cm/s
same,Papp A→B,in vitro [3],0.74 ×10⁻⁶ cm/s
same,half-life,in vitro [4],0.245 h
same,half-life,in vitro [5],0.185 h
same,Cmax,"[6]; lung, iv, 10 mg/kg",4210 ng/mL
same,MRT inf,"[6]; lung, iv, 10 mg/kg",4.5 h
same,Tmax,"[6]; lung, iv, 10 mg/kg",0.08 h
same,half-life,"[6]; lung, iv, 10 mg/kg",3.16 h
same,AUC(0-inf),"[6]; lung, po, 100 mg/kg",7840 ng·h/mL
same,Cmax,"[6]; lung, po, 100 mg/kg",811 ng/mL
same,MRT inf,"[6]; lung, po, 100 mg/kg",6.5 h
same,Tmax,"[6]; lung, po, 100 mg/kg",0.5 h
same,half-life,"[6]; lung, po, 100 mg/kg",4.23 h
same,AUC(0-inf),"[6]; plasma, iv, 10 mg/kg",9070 ng·h/mL
same,MRT inf,"[6]; plasma, iv, 10 mg/kg",1.05 h
same,Tmax,"[6]; plasma, iv, 10 mg/kg",0.08 h
same,Vd,"[6]; plasma, iv, 10 mg/kg",1.15 L/kg
same,clearance,"[6]; plasma, iv, 10 mg/kg",18.3 mL/min/kg
same,half-life,"[6]; plasma, iv, 10 mg/kg",2.67 h
same,Cmax,"[6]; plasma, po, 100 mg/kg",3000 ng/mL
same,MRT inf,"[6]; plasma, po, 100 mg/kg",3.7 h
same,Tmax,"[6]; plasma, po, 100 mg/kg",2 h
same,bioavailability,"[6]; plasma, po, 100 mg/kg",20.8%
same,half-life,"[6]; plasma, po, 100 mg/kg",2.09 h
same,half-life,in vitro [7],0.24 h
"O=C1CN(c2nc(=O)c3cc(C(F)(F)F)cc([N+](=O)[O-])c3s2)CCN1C1CCCC1 [Compound 1a, 2-(4-Cyclopentyl-3-oxopiperazin-1-yl)-8-nitro-6(trifluoromethyl)-4H-benzo[e]-[1,3]thiazin-4-one]",MIC,[1],0.013 µM
same,IC50,CYP3A4,5.33 µM
same,solubility,physchem,7.37 µg/mL
same,Papp B→A,"in vitro [3]; MDCK-MDR1, pH 7.4",7.23 ×10⁻⁶ cm/s
same,efflux ratio,"in vitro [3]; MDCK-MDR1, pH 7.4",0.68
same,Papp A→B,in vitro [3],10.6 ×10⁻⁶ cm/s
same,half-life,in vitro [4],0.26 h
same,half-life,in vitro [5],1.2 h
same,CC50,[2],> 10 µM
same,IC50,CYP2C19,8.6 µM
same,half-life,in vitro [7],0.157 h
"O=C(OC1CCN(c2nc(=O)c3cc(C(F)(F)F)cc([N+](=O)[O-])c3s2)CC1)c1ccccc1F [Compound 2i, 1-(8-Nitro-4-oxo-6-(trifluoromethyl)-4H-benzo[e][1,3]thiazin-2-yl)piperidin-4-yl 2-fluorobenzoate]",MIC,[1],≤ 0.002 µM
same,CC50,[2],> 10 µM
"O=C1OCCC1N1CCN(c2nc(=O)c3cc(C(F)(F)F)cc([N+](=O)[O-])c3s2)CC1 (stereo not shown) [Compound 2f, 8-Nitro-2-(4-(2-oxotetrahydrofuran-3-yl)piperazin-1-yl)-6-(tri-fluoromethyl)-4H-benzo[e][1,3]thiazin-4-one]",MIC,[1],0.064 µM
same,CC50,[2],> 10 µM
"Cc1ccc(OC2CCN(c3nc(=O)c4cc(C(F)(F)F)cc([N+](=O)[O-])c4s3)CC2)c(F)c1 [Compound 3i, 2-(4-(2-Fluoro-4-methylphenoxy)piperidin-1-yl)-8-nitro-6-(tri-fluoromethyl)-4H-benzo[e][1,3]thiazin-4-one]",MIC,[1],0.016 µM
same,solubility,physchem,1 µg/mL
same,CC50,[2],> 10 µM
"CCOC(=O)CN1CCN(c2nc(=O)c3cc(C(F)(F)F)cc([N+](=O)[O-])c3s2)CC1 [Compound 2b, Ethyl 2-(4-(8-nitro-4-oxo-6-(trifluoromethyl)-4H-benzo[e][1,3]thiazin-2-yl)-piperazin-1-yl)acetate]",MIC,[1],0.02 µM
same,CC50,[2],> 10 µM
"O=c1nc(N2CCC(Oc3ccccn3)CC2)sc2c([N+](=O)[O-])cc(C(F)(F)F)cc12 [Compound 3k, 8-Nitro-2-(4-(pyridin-2-yloxy)piperidin-1-yl)-6-(trifluoro-methyl)-4H-benzo[e][1,3]thiazin-4-one]",MIC,[1],0.031 µM
same,CC50,[2],> 10 µM
"COc1ccc(C(=O)OC2CCN(c3nc(=O)c4cc(C(F)(F)F)cc([N+](=O)[O-])c4s3)CC2)cc1 [Compound 2l, 1-(8-Nitro-4-oxo-6-(trifluoromethyl)-4H-benzo[e][1,3]thiazin-2-yl)piperidin-4-yl 4-methoxybenzoat]",MIC,[1],0.008 µM
same,CC50,[2],> 10 µM
"CCCCN1CCN(c2nc(=O)c3cc(C(F)(F)F)cc([N+](=O)[O-])c3s2)CC1=O [Compound 1d, 2-(4-Butyl-3-oxopiperazin-1-yl)-8-nitro-6-(trifluoromethyl)-4H-benzo[e][1,3]-thiazin-4-one]",CC50,[2],> 10 µM
"CCCC1CC(N2CCN(c3nc(=O)c4cc(C(F)(F)F)cc([N+](=O)[O-])c4s3)CC2)C(=O)O1 (stereo not shown) [Compound 2g, 8-Nitro-2-(4-(2-oxo-5-propyltetrahydrofuran-3-yl)piperazin-1-yl)-6-(trifluoromethyl)-4H-benzo[e][1,3]thiazin-4-one]",MIC,[1],0.016 µM
same,CC50,[2],> 10 µM
"O=c1nc(N2CCC(Oc3nccc(C(F)(F)F)n3)CC2)sc2c([N+](=O)[O-])cc(C(F)(F)F)cc12 [Compound 3n, 8-Nitro-6-(trifluoromethyl)-2-(4-((4-(trifluoromethyl)pyrimidin-2-yl)oxy)piperidin-1-yl)-4H-benzo[e][1,3]thiazin-4-one]",MIC,[1],0.004 µM
